Test results published in patent US20110039762A1, “TARGETED ANTIMICROBIAL MOIETIES” (C3 JIAN, INC., priority 2009, published 2011).
Entries after “also recorded” stand apart in the source; their conditions may differ. Square brackets hold non-standard residues; d marks the D form. Ends that are not written are not given here. Aib = CC(C)(N)C(=O)O

Tested on: microorganisms (e.g., bacteria, yeasts, fungi)
Assay: Targeting peptide binding to target microorganisms (Table 3)
Details: peptide binding in aqueous buffers varied by peptide solubility; preferably 1x PBS

Question: For “PF-767 (DGKQGEPVALKPTDN; Peptide with targeting and/or antimicrobial activity)”, which “Target(s) (microorganisms bound by the targeting peptide)” value is on record?
Answer: The value was “S. epidermidis and M. luteus and E. coli and MRSA and S. pneumoniae and E. faecalis and C. jeikeium”.

Question: For “PF-768 (GFRGGKRGGARG; Peptide with targeting and/or antimicrobial activity)”, which “Target(s) (microorganisms bound by the targeting peptide)” value is on record?
Answer: The value was “S. epidermidis; also recorded: S. pneumoniae; also recorded: E. faecalis; also recorded: C. jeikeium”.

Question: “PF-772 (TKESSS; Peptide with targeting and/or antimicrobial activity)” was tested. Which “Target(s) (microorganisms bound by the targeting peptide)” value did it give?
Answer: The value was “S. epidermidis and C. albicans and MRSA and S. pneumoniae and C. jeikeium”.

Question: With “PF-773 (TLKESK; Peptide with targeting and/or antimicrobial activity)” as the substance, how does the “Target(s) (microorganisms bound by the targeting peptide)” value read?
Answer: Its value is “S. epidermidis; also recorded: C. albicans; also recorded: C. jeikeium”.

Question: For “PF-777 (PGADGKLAEASAAIARLVRS; Peptide with targeting and/or antimicrobial activity)”, which “Target(s) (microorganisms bound by the targeting peptide)” value is on record?
Answer: The value was “Mycobacteria spp”.

Question: How did the “Target(s) (microorganisms bound by the targeting peptide)” value turn out when “PF-778 (MNLILTAHGT; Peptide with targeting and/or antimicrobial activity)” was run?
Answer: Its value is “Mycobacteria spp”.

Question: “PF-779 (IYGDFFNFYLCDISLKVNGLQPGGPVRTVKLFGQPTGRCTPQ; Peptide with targeting and/or antimicrobial activity)” was tested. Which “Target(s) (microorganisms bound by the targeting peptide)” value did it give?
Answer: Its value is “Mycobacteria spp”.

Question: For “PF-780 (AVYDALVALAAAEHRAELATRDARAKDTYEKIGVHVVVAA; Peptide with targeting and/or antimicrobial activity)”, which “Target(s) (microorganisms bound by the targeting peptide)” value is on record?
Answer: Its value is “Mycobacteria spp”.

Question: “PF-781 (PLVVVNHRRAERSRG; Peptide with targeting and/or antimicrobial activity)” was tested. Which “Target(s) (microorganisms bound by the targeting peptide)” value did it give?
Answer: Its value is “Mycobacteria spp”.

Question: How did the “Target(s) (microorganisms bound by the targeting peptide)” value turn out when “PF-782 (TGPRRGIDLTSNRALSEVLDEGLELNSRK; Peptide with targeting and/or antimicrobial activity)” was run?
Answer: The value was “Mycobacteria spp”.

Question: Which “Target(s) (microorganisms bound by the targeting peptide)” value does the source give for “PF-783 (FTSEVRGVFTYRVNKAGLITNMRGYWNLDMMTFGNQE; Peptide with targeting and/or antimicrobial activity)” here?
Answer: Its value is “Mycobacteria spp”.

Question: For “PF-784 (MAMTTVDNIVGLVIAVALMAFLFAALLFPEKF; Peptide with targeting and/or antimicrobial activity)”, which “Target(s) (microorganisms bound by the targeting peptide)” value is on record?
Answer: Its value is “Mycobacteria spp”.

Question: Which “Target(s) (microorganisms bound by the targeting peptide)” value does the source give for “PF-785 (MRPQHSPAGKAFVVKKITHEQS; Peptide with targeting and/or antimicrobial activity)” here?
Answer: Its value is “Mycobacteria spp”.

Question: “PF-786 (LSERERRRLKRGII; Peptide with targeting and/or antimicrobial activity)” was tested. Which “Target(s) (microorganisms bound by the targeting peptide)” value did it give?
Answer: The value was “Mycobacteria spp”.

Question: How did the “Target(s) (microorganisms bound by the targeting peptide)” value turn out when “PF-787 (MTERQRRALLKQHPEVVSWSDYLEKRKRRTGTAG; Peptide with targeting and/or antimicrobial activity)” was run?
Answer: The value was “Mycobacteria spp”.

Question: With “PF-788 (GLITVFAGTARILQLRRAAKKTHAAALR; Peptide with targeting and/or antimicrobial activity)” as the substance, how does the “Target(s) (microorganisms bound by the targeting peptide)” value read?
Answer: Its value is “Mycobacteria spp”.

Question: With “PF-789 (PRGAQSGHG; Peptide with targeting and/or antimicrobial activity)” as the substance, how does the “Target(s) (microorganisms bound by the targeting peptide)” value read?
Answer: Its value is “Mycobacteria spp”.

Question: With “PF-790 (PAGPDHLDQRDHR; Peptide with targeting and/or antimicrobial activity)” as the substance, how does the “Target(s) (microorganisms bound by the targeting peptide)” value read?
Answer: The value was “Mycobacteria spp”.

Question: How did the “Target(s) (microorganisms bound by the targeting peptide)” value turn out when “PF-791 (IFLTTQNTDYSEHNAA; Peptide with targeting and/or antimicrobial activity)” was run?
Answer: Its value is “S. mutans”.

Question: Which “Target(s) (microorganisms bound by the targeting peptide)” value does the source give for “PF-792 (ALHASGIQAI; Peptide with targeting and/or antimicrobial activity)” here?
Answer: Its value is “S. mutans”.

Question: How did the “Target(s) (microorganisms bound by the targeting peptide)” value turn out when PF-793 (YTQ[Aib]NNASAYAMLLTNKDTVP) was run?
Answer: Its value is “S. mutans”.

Question: How did the “Target(s) (microorganisms bound by the targeting peptide)” value turn out when “PF-794 (NLYFENQGN; Peptide with targeting and/or antimicrobial activity)” was run?
Answer: Its value is “S. mutans”.

Question: “PF-795 (ALHKSGIQVIADWVPDQIYN; Peptide with targeting and/or antimicrobial activity)” was tested. Which “Target(s) (microorganisms bound by the targeting peptide)” value did it give?
Answer: The value was “S. mutans”.

Question: How did the “Target(s) (microorganisms bound by the targeting peptide)” value turn out when “PF-796 (YTQSNIPTAYALMLSNKDSI; Peptide with targeting and/or antimicrobial activity)” was run?
Answer: The value was “S. mutans”.

Question: For “PF-797 (WYYFDNNGYM; Peptide with targeting and/or antimicrobial activity)”, which “Target(s) (microorganisms bound by the targeting peptide)” value is on record?
Answer: Its value is “S. mutans”.

Question: With “PF-798 (ALHSKGIKVMADWVPDQMYA; Peptide with targeting and/or antimicrobial activity)” as the substance, how does the “Target(s) (microorganisms bound by the targeting peptide)” value read?
Answer: The value was “S. mutans”.

Question: With “PF-799 (YTHYNTALSYALLLTNKSSVP; Peptide with targeting and/or antimicrobial activity)” as the substance, how does the “Target(s) (microorganisms bound by the targeting peptide)” value read?
Answer: Its value is “S. mutans”.

Question: Which “Target(s) (microorganisms bound by the targeting peptide)” value does the source give for “PF-800 (WYYFDNNGYM; Peptide with targeting and/or antimicrobial activity)” here?
Answer: The value was “S. mutans”.

Question: For “PF-C003 (FCSVDHDVITIAADHVKQGAEA; Peptide with targeting and/or antimicrobial activity)”, which “Target(s) (microorganisms bound by the targeting peptide)” value is on record?
Answer: The value was “A. naeslundii; also recorded: P. gingivalis; also recorded: S. mutans”.

Question: “PF-C008 (AQPRRTWLVNFGEVPSPGLTNDGMPDH; Peptide with targeting and/or antimicrobial activity)” was tested. Which “Target(s) (microorganisms bound by the targeting peptide)” value did it give?
Answer: The value was “A. naeslundii”.

Question: For “PF-C034 (HPMPITVRSRKPGPLTAPSEH; Peptide with targeting and/or antimicrobial activity)”, which “Target(s) (microorganisms bound by the targeting peptide)” value is on record?
Answer: The value was “S. mutans; also recorded: E. coli”.

Question: “PF-C045 (FREGMGWPLSNEGSPTAPLPKHRNQV; Peptide with targeting and/or antimicrobial activity)” was tested. Which “Target(s) (microorganisms bound by the targeting peptide)” value did it give?
Answer: Its value is “A. naeslundii; also recorded: T. denticola”.

Question: How did the “Target(s) (microorganisms bound by the targeting peptide)” value turn out when “PF-C050 (QGLARPVLRRIPL; Peptide with targeting and/or antimicrobial activity)” was run?
Answer: The value was “A. naeslundii; also recorded: S. mutans”.

Question: For “PF-C063 (SHFRKGD; Peptide with targeting and/or antimicrobial activity)”, which “Target(s) (microorganisms bound by the targeting peptide)” value is on record?
Answer: Its value is “A. naeslundii; also recorded: F. nucleatum; also recorded: S. mutans”.

Question: Which “Target(s) (microorganisms bound by the targeting peptide)” value does the source give for “PF-C068 (LNLFASI; Peptide with targeting and/or antimicrobial activity)” here?
Answer: The value was “A. naeslundii; also recorded: F. nucleatum; also recorded: S. mutans”.

Question: For “PF-C080 (INIPGLF; Peptide with targeting and/or antimicrobial activity)”, which “Target(s) (microorganisms bound by the targeting peptide)” value is on record?
Answer: The value was “A. naeslundii; also recorded: F. nucleatum; also recorded: S. mutans”.

Question: “PF-C093 (EKLGTMV; Peptide with targeting and/or antimicrobial activity)” was tested. Which “Target(s) (microorganisms bound by the targeting peptide)” value did it give?
Answer: Its value is “A. naeslundii; also recorded: F. nucleatum; also recorded: S. mutans”.

Question: “PF-C134 (NELMKYPATLTATATTPGIKYSHLCSVCL; Peptide with targeting and/or antimicrobial activity)” was tested. Which “Target(s) (microorganisms bound by the targeting peptide)” value did it give?
Answer: Its value is “A. naeslundii; also recorded: F. nucleatum; also recorded: P. gingivalis; also recorded: S. mutans; also recorded: T. denticola”.

Question: “PF-C160 (AASGFTYCASNGVWHPY; Peptide with targeting and/or antimicrobial activity)” was tested. Which “Target(s) (microorganisms bound by the targeting peptide)” value did it give?
Answer: The value was “F. nucleatum”.

Question: With “PF-C259 (AEIQPHCLSVL; Peptide with targeting and/or antimicrobial activity)” as the substance, how does the “Target(s) (microorganisms bound by the targeting peptide)” value read?
Answer: Its value is “F. nucleatum; also recorded: S. mutans”.

Question: With “PF-C271 (FFPSYYSIIITYF; Peptide with targeting and/or antimicrobial activity)” as the substance, how does the “Target(s) (microorganisms bound by the targeting peptide)” value read?
Answer: The value was “A. naeslundii; also recorded: F. nucleatum; also recorded: P. gingivalis; also recorded: S. mutans; also recorded: T. denticola”.

Question: With “PF-C273 (KNMLKRRMKQKRLFDEEDRLRVLSKYTKSYY; Peptide with targeting and/or antimicrobial activity)” as the substance, how does the “Target(s) (microorganisms bound by the targeting peptide)” value read?
Answer: The value was “A. naeslundii; also recorded: P. gingivalis; also recorded: S. mutans; also recorded: T. denticola”.

Question: For “PF-C285 (FTIIELKKQKIKHGENNKKTAHPLNEPFCARA; Peptide with targeting and/or antimicrobial activity)”, which “Target(s) (microorganisms bound by the targeting peptide)” value is on record?
Answer: Its value is “A. naeslundii; also recorded: F. nucleatum; also recorded: P. gingivalis; also recorded: S. mutans; also recorded: T. denticola”.

Question: Which “Target(s) (microorganisms bound by the targeting peptide)” value does the source give for “PF-S004 (VLLNIFRTLLEFFSPSNAPGAEDVPLPDTQA; Peptide with targeting and/or antimicrobial activity)” here?
Answer: Its value is “S. epidermidis and MRSA and C. jeikeium”.

Question: With “PF-S007 (VVAGVVLLTALAVGSKRKEKKQIKEIQRLLAATR; Peptide with targeting and/or antimicrobial activity)” as the substance, how does the “Target(s) (microorganisms bound by the targeting peptide)” value read?
Answer: The value was “S. epidermidis and MRSA”.

Question: Which “Target(s) (microorganisms bound by the targeting peptide)” value does the source give for “PF-S015 (IENLERGARRPP; Peptide with targeting and/or antimicrobial activity)” here?
Answer: The value was “S. epidermidis and MRSA and C. jeikeium”.

Question: Which “Target(s) (microorganisms bound by the targeting peptide)” value does the source give for “PF-S018 (GMPQIPRLRI; Peptide with targeting and/or antimicrobial activity)” here?
Answer: The value was “S. epidermidis and M. luteus and C. albicans and MRSA and E. faecalis and C. jeikeium and C. jejuni”.
